Data from ChEMBL document CHEMBL4431304, “Myritonines A-C, Alkaloids from Myrioneuron tonkinensis Based on a Novel Hexacyclic Skeleton” (J Nat Prod, 2016).
Activity calls are given as the source filed them. The rule behind the calls is not given here.

Assays:
HL-60 = assay: Cytotoxicity against human HL60 cells assessed as reduction in cell viability after 48 hrs by MTT assay; type: functional, cell-based; conditions: HL-60, 48 h
[1] = Therapeutic index, ratio of CC50 for human Huh7.5 cells to EC50 for Hepatitis C virus; type: toxicity; conditions: read-out: Ratio CC50/EC50
Hepatitis C virus = assay: Antiviral activity against HCV infected in human Huh7.5 cells assessed as decrease in viral RNA level after 72 hrs by RT-PCR method; type: functional, organism-based; conditions: Hepacivirus hominis
SW480 = assay: Cytotoxicity against human SW480 cells assessed as reduction in cell viability after 48 hrs by MTT assay; type: functional, cell-based; conditions: SW480, 48 h
A549 = assay: Cytotoxicity against human A549 cells assessed as reduction in cell viability after 48 hrs by MTT assay; type: functional, cell-based; conditions: A549, 48 h
MCF7 = assay: Cytotoxicity against human MCF7 cells assessed as reduction in cell viability after 48 hrs by MTT assay; type: functional, cell-based; conditions: MCF7, 48 h
SMMC-7721 = assay: Cytotoxicity against human SMMC7721 cells assessed as reduction in cell viability after 48 hrs by MTT assay; type: functional, cell-based; conditions: SMMC-7721, 48 h

Row | SMILES | IC50 (HL-60) [µM] | selectivity ratio [1] | Activity (Hepatitis C virus) | IC50 (SW480) [µM] | IC50 (A549) [µM] | IC50 (MCF7) [µM] | IC50 (SMMC-7721) [µM]
1 | O=C1[C@H]2CCC[C@H]3CC[C@H]4N5CCCC[C@H]5[C@@H]5CCCN1[C@H]5N4[C@@H]32 | > 10 | > 11 | Active | > 10 | > 10 | > 10 | > 10
2 | C1C[C@H]2CC[C@H]3N4CCCC[C@H]4[C@@H]4CCCN5C[C@@H](C1)[C@H]2N3[C@@H]45 | > 10 | > 12 | Active | > 10 | > 10 | > 10 | > 10
3 | N#C[C@@H]1N2CCC[C@H]3[C@@H]4CCCCN4[C@@H]4CC[C@H]5CCC[C@]1(O)[C@@H]5N4[C@@H]32 | > 10 | – | – | > 10 | > 10 | > 10 | > 10
